Measurements published in patent US12173020B2, “New-type oxazolidinone compounds and preparation method therefor” (priority 2019, dated 2024).

Columns and labels:
[1] = tested on: methicillin-resistant Staphylococcus aureus (MRSA); assay: agar dilution method, inhibitory effect on MRSA; assay type: cell-based; details: for MIC50: Staphylococcus aureus, read-out: Minimum inhibitory concentration (MIC50, μg/ml) MRSA
Description: (§1) In order to determine the antibacterial activity of these new oxazolidinone-based compounds, an agar dilution method was used to test the inhibitory effect on methicillin-resistant Staphylococcus aureus (MRSA) and vancomycin-resistant Enterococcus (VRE). The bacteria inhibition effect was expressed as minimum inhibitory concentration (MIC50, μg/ml) The test results are shown in the following table.

[2] = tested on: vancomycin-resistant Enterococcus (VRE); assay: agar dilution method, inhibitory effect on VRE; assay type: cell-based; details: for MIC50: Enterococcus, read-out: Minimum inhibitory concentration (MIC50, μg/ml) VRE
Description: as §1

Row | Compound | MIC50 [1] [µg/mL] | MIC50 [2] [µg/mL] | Minimum inhibitory concentration (MIC50, μg/ml) MRSA [1] [µg/mL] | Minimum inhibitory concentration (MIC50, μg/ml) VRE [2] [µg/mL]
1 | C=Cn1nnc(-c2ccc(-c3ccc(N4C[C@@H](C(O)C5CC5)OC4=O)cc3F)cn2)n1.O=P(O)(O)O (stereo partly drawn) [compound 156, (S)-3-(3-fluoro-4-(6-(2-vinyl-2H-tetrazol-5-yl)pyridin-3-yl)phenyl)-5-(1-hydroxy-1-cyclopropylmethyl) oxazolidin-2-one phosphate] | 0.4 | 0.4 | – | –
2 | C=Cn1nnc(-c2ccc(-c3ccc(N4C[C@H](C(OP(=O)(O)O)C(F)F)OC4=O)cc3F)cn2)n1 (stereo partly drawn) [compound 151, (R)-3-(3-fluoro-4-(6-(2-vinyl-2H-tetrazol-5-yl)pyridin-3-yl)phenyl)-5-(1-hydroxy-2-difluoroethyl) oxazolidin-2-one phosphate] | – | – | 0.8 | 0.6
3 | CCn1nnc(-c2ccc(-c3ccc(N4C[C@@H](CO)OC4=O)cc3F)cn2)n1.O=P(O)(O)O [compound 80, (S)-3-(3-fluoro-4-(6-(2-ethyl-2H-tetrazol-5-yl)pyridin-3-yl)phenyl)-5-(hydroxymethyl) oxazolidin-2-one phosphate] | 1.9 | 1.9 | – | –
